The source of these data is article PMC9048848 (RSC Advances, 2020).

The experiment concerns the target T1, PTP1B (Homo sapiens, UniProt P18031).
T1 sequence (P18031 1-321): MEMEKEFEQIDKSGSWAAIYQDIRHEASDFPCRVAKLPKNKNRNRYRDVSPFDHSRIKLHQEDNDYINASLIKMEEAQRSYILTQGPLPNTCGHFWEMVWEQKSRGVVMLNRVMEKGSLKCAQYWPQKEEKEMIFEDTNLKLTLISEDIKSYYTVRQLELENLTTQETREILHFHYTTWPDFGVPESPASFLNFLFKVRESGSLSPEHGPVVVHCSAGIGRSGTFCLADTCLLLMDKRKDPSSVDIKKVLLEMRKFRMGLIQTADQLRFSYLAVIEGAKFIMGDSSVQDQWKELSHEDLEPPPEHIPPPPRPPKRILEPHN
The experiment is described as follows: SPR. Format: binding.

As to `CCOCc1cc(O)c(O)c(Br)c1Cc1cc(O)c(O)c(Br)c1Br` [BPN, 3,4-Dibromo-5-(2-bromo-6-(ethoxymethyl)-3,4-dihydroxybenzyl)benzene-1,2-diol], the Kd came to 3.3 µM. In other words, the single-digit micromolar range.

Usually Kd stands for the constant that tells how readily two partners part at equilibrium. Low readings indicate a tighter complex, high ones a looser complex.
